Calls of active or inactive are those of the source. The rule behind the calls is not given here.
Key:
[1] = Tmax in CD1 mouse at 10 mg/kg, po; format: ADME, organism-based; set-up: dose 10 mg/kg, route oral; conditions: in vivo
[2] = AUCinfinity in CD1 mouse at 2 mg/kg, iv; format: ADME, organism-based; set-up: time infinity, dose 2 mg/kg, route intravenous; conditions: plasma
[3] = target: T1, D(3) dopamine receptor (Homo sapiens, UniProt P35462); experiment: Inhibition of human dopamine D3 receptor at 10 nM relative to control
T1 sequence (P35462 whole entry): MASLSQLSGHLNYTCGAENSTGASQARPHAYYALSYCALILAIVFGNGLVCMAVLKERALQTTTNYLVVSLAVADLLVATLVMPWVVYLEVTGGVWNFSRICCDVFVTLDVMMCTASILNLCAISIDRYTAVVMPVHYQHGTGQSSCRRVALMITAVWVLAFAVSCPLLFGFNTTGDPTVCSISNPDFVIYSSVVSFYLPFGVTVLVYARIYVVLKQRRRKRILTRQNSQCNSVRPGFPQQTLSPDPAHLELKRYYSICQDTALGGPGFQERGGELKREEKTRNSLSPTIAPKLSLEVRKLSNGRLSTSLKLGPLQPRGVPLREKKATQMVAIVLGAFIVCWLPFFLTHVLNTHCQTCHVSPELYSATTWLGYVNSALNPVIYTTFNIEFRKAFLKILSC

[4] = target: T1, D(3) dopamine receptor; experiment: Inhibition of human dopamine D3 receptor
[5] = target: T1, D(3) dopamine receptor; experiment: Inhibition of human dopamine D3 receptor at 100 nM relative to control
[6] = target: T2, D(2) dopamine receptor (Homo sapiens, UniProt P14416); conditions: HEK293, 100 nM
T2 sequence (P14416 whole entry): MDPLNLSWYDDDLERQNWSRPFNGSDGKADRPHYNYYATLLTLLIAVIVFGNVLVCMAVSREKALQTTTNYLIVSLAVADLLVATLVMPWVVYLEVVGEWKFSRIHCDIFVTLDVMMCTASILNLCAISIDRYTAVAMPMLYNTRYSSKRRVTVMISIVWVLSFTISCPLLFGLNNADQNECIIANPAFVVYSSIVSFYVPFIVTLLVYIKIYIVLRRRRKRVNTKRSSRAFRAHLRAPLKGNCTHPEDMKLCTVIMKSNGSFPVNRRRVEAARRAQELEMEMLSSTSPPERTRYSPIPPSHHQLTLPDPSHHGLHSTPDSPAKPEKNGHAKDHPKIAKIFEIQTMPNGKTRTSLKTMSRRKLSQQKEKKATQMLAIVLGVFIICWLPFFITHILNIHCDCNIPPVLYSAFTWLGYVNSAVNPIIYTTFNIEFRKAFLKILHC

[7] = target: T3, 5-hydroxytryptamine receptor 1A (Rattus norvegicus, UniProt P19327); experiment: Displacement of [3H]8-OH-DPAT from 5-HT1A receptor in Wistar rat cerebral hippocampus membrane after 10 mins; format: tissue-based; conditions: read-out: Ki(app)
T3 sequence (P19327 whole entry): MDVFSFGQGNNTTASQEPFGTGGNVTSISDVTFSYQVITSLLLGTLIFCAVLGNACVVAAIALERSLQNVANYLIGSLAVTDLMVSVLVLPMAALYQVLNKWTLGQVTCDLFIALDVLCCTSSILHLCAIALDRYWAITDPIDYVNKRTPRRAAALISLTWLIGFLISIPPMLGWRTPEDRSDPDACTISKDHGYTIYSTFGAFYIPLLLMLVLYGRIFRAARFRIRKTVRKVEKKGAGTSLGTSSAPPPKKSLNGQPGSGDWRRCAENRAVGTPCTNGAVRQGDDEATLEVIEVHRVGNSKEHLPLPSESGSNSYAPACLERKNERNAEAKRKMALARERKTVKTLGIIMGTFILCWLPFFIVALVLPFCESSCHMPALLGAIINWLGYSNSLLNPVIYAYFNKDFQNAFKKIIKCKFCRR

[8] = AUCinfinity in CD1 mouse at 10 mg/kg, po; format: ADME, organism-based; set-up: time infinity, dose 10 mg/kg, route oral; conditions: plasma
[9] = target: T4, 5-hydroxytryptamine receptor 2B (Homo sapiens, UniProt P41595); experiment: Inhibition of human 5-HT2B receptor at 100 nM relative to control
T4 sequence (P41595 whole entry): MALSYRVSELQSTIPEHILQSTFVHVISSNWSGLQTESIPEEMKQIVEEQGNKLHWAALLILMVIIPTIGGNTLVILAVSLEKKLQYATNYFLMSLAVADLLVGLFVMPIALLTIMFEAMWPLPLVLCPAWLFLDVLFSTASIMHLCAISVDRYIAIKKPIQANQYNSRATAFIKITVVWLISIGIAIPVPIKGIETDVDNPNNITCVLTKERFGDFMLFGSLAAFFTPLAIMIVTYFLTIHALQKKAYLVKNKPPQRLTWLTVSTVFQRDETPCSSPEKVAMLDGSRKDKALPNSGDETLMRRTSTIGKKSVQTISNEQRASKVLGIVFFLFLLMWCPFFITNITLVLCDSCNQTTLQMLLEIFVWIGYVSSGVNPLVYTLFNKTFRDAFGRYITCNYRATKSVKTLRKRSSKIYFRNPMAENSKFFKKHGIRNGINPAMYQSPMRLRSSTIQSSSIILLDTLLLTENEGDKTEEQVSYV

[10] = tested on: Mus musculus; experiment: Toxicity in CD1 mouse assessed as effect on neurovegetative reflexes up to 80 mg/kg, po measured for 24 hrs by Irwin test; format: organism-based; set-up: dose 80 mg/kg, route oral; conditions: in vivo
[11] = target: T4, 5-hydroxytryptamine receptor 2B; experiment: Inhibition of human 5-HT2B receptor
[12] = Oral bioavailability in CD1 mouse at 10 mg/kg; format: ADME, organism-based; conditions: in vivo
[13] = target: T5, 5-hydroxytryptamine receptor 7 (Homo sapiens, UniProt P34969); experiment: Inhibition of human 5-HT7 receptor at 10 nM relative to control
T5 sequence (P34969 whole entry): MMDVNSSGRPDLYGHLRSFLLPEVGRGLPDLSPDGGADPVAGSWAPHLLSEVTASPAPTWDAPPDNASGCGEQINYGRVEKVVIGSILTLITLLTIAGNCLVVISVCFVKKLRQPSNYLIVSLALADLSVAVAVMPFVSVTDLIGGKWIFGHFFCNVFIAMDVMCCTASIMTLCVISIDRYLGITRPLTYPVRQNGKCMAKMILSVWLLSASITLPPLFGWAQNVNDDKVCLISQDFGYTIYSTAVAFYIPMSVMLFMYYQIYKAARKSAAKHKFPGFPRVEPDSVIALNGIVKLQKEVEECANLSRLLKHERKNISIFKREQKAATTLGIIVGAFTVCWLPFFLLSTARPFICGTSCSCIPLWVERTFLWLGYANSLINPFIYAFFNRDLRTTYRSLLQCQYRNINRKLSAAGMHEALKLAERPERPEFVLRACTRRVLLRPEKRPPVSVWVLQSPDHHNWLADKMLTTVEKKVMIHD

[14] = target: T4, 5-hydroxytryptamine receptor 2B; experiment: Inhibition of human 5-HT2B receptor at 10 nM relative to control
[15] = Half life in CD1 mouse at 2 mg/kg, iv; format: ADME, organism-based; set-up: dose 2 mg/kg, route intravenous; conditions: in vivo
[16] = target: T5, 5-hydroxytryptamine receptor 7; experiment: Inhibition of human 5-HT7 receptor
[17] = Apparent volume of distribution in CD1 mouse at 2 mg/kg, iv; format: ADME, organism-based; set-up: dose 2 mg/kg, route intravenous; conditions: in vivo, read-out: Vz
[18] = target: T2, D(2) dopamine receptor; experiment: Inhibition of human recombinant dopamine D2S receptor expressed in HEK293 cells; format: cell-based
[19] = Cmax in CD1 mouse at 10 mg/kg, po; format: ADME, organism-based; set-up: dose 10 mg/kg, route oral; conditions: in vivo
[20] = Clearance in CD1 mouse at 2 mg/kg, iv; format: ADME, organism-based; set-up: dose 2 mg/kg, route intravenous; conditions: in vivo
[21] = tested on: Mus musculus; experiment: Toxicity in CD1 mouse assessed as effect on central reactivity up to 80 mg/kg, po measured for 24 hrs by Irwin test; format: organism-based; set-up: dose 80 mg/kg, route oral; conditions: in vivo
[22] = target: T6, D(4) dopamine receptor (Homo sapiens) (UniProt P21917); experiment: Inhibition of dopamine D4 receptor (unknown origin) at 100 nM relative to control
T6 sequence (whole entry): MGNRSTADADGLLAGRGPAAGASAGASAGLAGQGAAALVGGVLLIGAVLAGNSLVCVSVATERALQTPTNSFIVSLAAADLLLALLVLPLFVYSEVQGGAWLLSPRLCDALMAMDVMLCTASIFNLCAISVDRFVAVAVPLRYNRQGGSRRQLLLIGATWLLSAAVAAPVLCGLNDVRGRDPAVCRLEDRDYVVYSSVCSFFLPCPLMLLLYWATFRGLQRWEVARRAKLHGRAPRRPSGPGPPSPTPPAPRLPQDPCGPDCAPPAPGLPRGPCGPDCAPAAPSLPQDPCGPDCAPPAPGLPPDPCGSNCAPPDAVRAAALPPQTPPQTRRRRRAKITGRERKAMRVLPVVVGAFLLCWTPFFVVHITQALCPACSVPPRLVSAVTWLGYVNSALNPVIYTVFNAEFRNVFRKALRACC

[23] = AUC (0 to t) in CD1 mouse at 2 mg/kg, iv; format: ADME, organism-based; set-up: dose 2 mg/kg, route intravenous; conditions: plasma
[24] = AUC (0 to t) in CD1 mouse at 10 mg/kg, po; format: ADME, organism-based; set-up: dose 10 mg/kg, route oral; conditions: plasma
[25] = target: T7, 5-hydroxytryptamine receptor 1A (Homo sapiens) (UniProt P08908); experiment: Agonist activity at human 5-HT1A receptor transfected in CHO cells assessed as inhibition of forskolin-induced cAMP accumulation at 100 nM relative to control; format: functional, cell-based
T7 sequence (whole entry): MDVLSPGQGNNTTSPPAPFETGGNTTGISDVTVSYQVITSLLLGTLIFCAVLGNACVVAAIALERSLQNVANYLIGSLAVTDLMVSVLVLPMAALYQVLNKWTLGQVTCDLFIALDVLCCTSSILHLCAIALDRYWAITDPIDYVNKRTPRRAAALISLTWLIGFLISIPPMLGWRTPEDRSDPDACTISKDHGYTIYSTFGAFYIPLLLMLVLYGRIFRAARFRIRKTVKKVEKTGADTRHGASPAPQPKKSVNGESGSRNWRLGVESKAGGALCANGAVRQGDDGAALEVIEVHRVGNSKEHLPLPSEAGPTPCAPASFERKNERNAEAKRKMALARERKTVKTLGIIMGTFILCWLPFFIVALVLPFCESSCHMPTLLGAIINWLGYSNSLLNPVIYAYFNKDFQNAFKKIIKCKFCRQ

[26] = tested on: Mus musculus; experiment: Toxicity in CD1 mouse assessed as effect on central activity up to 80 mg/kg, po measured for 24 hrs by Irwin test; format: organism-based; set-up: dose 80 mg/kg, route oral; conditions: in vivo
[27] = target: T7, 5-hydroxytryptamine receptor 1A (Homo sapiens); experiment: Antagonist activity at human 5-HT1A receptor transfected in CHO cells assessed as reversal of 8-OH-DPAT-induced cAMP reduction; format: functional, cell-based
[28] = target: T8, D(4) dopamine receptor (Homo sapiens, UniProt P21917); experiment: Inhibition of dopamine D4 receptor (unknown origin)
T8 sequence (P21917 whole entry): T6 sequence (whole entry)

[29] = target: T5, 5-hydroxytryptamine receptor 7; experiment: Inhibition of human 5-HT7 receptor at 100 nM relative to control
[30] = Half life in CD1 mouse at 10 mg/kg, po; format: ADME, organism-based; set-up: dose 10 mg/kg, route oral; conditions: in vivo
[31] = tested on: Mus musculus; experiment: Toxicity in CD1 mouse assessed as effect on neuromotor tonus up to 80 mg/kg, po measured for 24 hrs by Irwin test; format: organism-based; set-up: dose 80 mg/kg, route oral; conditions: in vivo
[32] = target: T6, D(4) dopamine receptor (Homo sapiens); experiment: Inhibition of dopamine D4 receptor (unknown origin) at 10 nM relative to control
[33] = tested on: Mus musculus; experiment: Toxicity in CD1 mouse assessed as effect on autonomic system up to 80 mg/kg, po measured for 24 hrs by Irwin test; format: organism-based; set-up: dose 80 mg/kg, route oral; conditions: in vivo
[34] = target: T2, D(2) dopamine receptor; conditions: HEK293, 10 nM
[35] = target: T4, 5-hydroxytryptamine receptor 2B; experiment: Binding affinity to human 5-HT2B receptor by radioligand displacement assay

## COc1ccccc1N1CCN(CCCCCN2Cc3c(Cl)nc4ccccc4c3C2=O)CC1
[1]
  Tmax: 1 h
[2]
  AUC(0-inf): 76 ng·h/mL
[3]
  inhibition: 38%
[4]
  IC50: 31 nM
[5]
  inhibition: 74%
[6]
  inhibition: 26%
[7]
  Ki: 1.7 nM
[8]
  AUC(0-inf): 239 ng·h/mL
[9]
  inhibition: 65%
[10]
  Activity: Non-toxic
[11]
  IC50: 63 nM
[12]
  bioavailability: 45%
[13]
  inhibition: 24%
[14]
  inhibition: 18%
[15]
  half-life: 1.5 h
[16]
  IC50: > 100 nM
[17]
  Vd: 58.7 L/kg
[18]
  IC50: > 100 nM
[19]
  Cmax: 35 ng/mL
[20]
  clearance: 440 mL/min/kg
[21]
  Activity: Non-toxic
[22]
  inhibition: 28%
[23]
  AUC(0-t): 70 ng·h/mL
[24]
  AUC(0-t): 157 ng·h/mL
[25]
  inhibition: 60%
[26]
  Activity: Non-toxic
[27]
  Activity: inactive
[28]
  IC50: > 100 nM
[29]
  inhibition: 42%
[30]
  half-life: 4.5 h
[31]
  Activity: Non-toxic
[32]
  inhibition: 10%
[33]
  Activity: Non-toxic

## COc1ccccc1N1CCN(CCCCCN2Cc3ccc4ccccc4c3C2=O)CC1
[1]
  Tmax: 0.3 h
[2]
  AUC(0-inf): 210 ng·h/mL
[3]
  inhibition: 39%
[4]
  IC50: 24 nM
[34]
  inhibition: 74%
[5]
  inhibition: 86%
[6]
  inhibition: 90%
[7]
  Ki: 1.6 nM
[8]
  AUC(0-inf): 325 ng·h/mL
[9]
  inhibition: 70%
[10]
  Activity: Non-toxic
[11]
  IC50: 43 nM
[12]
  bioavailability: 20%
[13]
  inhibition: 18%
[14]
  inhibition: 28%
[15]
  half-life: 1.3 h
[16]
  IC50: 62 nM
[17]
  Vd: 17.6 L/kg
[18]
  IC50: 3.5 nM
[19]
  Cmax: 56 ng/mL
[20]
  clearance: 159 mL/min/kg
[21]
  Activity: Non-toxic
[22]
  inhibition: 60%
[23]
  AUC(0-t): 207 ng·h/mL
[24]
  AUC(0-t): 212 ng·h/mL
[25]
  inhibition: 63%
[26]
  Activity: Non-toxic
[27]
  Activity: inactive
[28]
  IC50: 65 nM
[29]
  inhibition: 65%
[30]
  half-life: 4.7 h
[31]
  Activity: Non-toxic
[32]
  inhibition: 13%
[33]
  Activity: Non-toxic

## COc1cc(CC(C)N)c(OC)cc1I (racemic)
[35]
  IC50: 4 nM

Reference: ChEMBL document CHEMBL2390830 (Eur J Med Chem, 2013)
